From patent publication US10640497B2, “Microbiocidal oxadiazole derivatives” (SYNGENTA PARTICIPATIONS AG, priority 2015, dated 2020)

Tests used:
[1] = test system: Glomerella lagenarium (Colletotrichum lagenarium); test: Fungicidal activity against Glomerella lagenarium (Colletotrichum lagenarium), liquid culture, cucumber, preventative (anthracnose); format: cell-based; conditions: Colletotrichum orbiculare, liquid culture (PDB), growth inhibition measured photometrically 3-4 days after application, compared to untreated control
Experimental: Mycelia fragments or conidia suspensions of a fungus, prepared either freshly from liquid cultures of the fungus or from cryogenic storage, are directly mixed into nutrient broth. DMSO solutions of the test compound (max. 10 mg/ml) is diluted with 0.025% Tween20 by a factor of 50 and 10 μl of this solution is pipetted into a microtiter plate (96-well format). The nutrient broth containing the fungal spores/mycelia fragments is then added to give an end concentration of the tested compound. The test plates are incubated in the dark at 24° C. and 96% relative humidity. The inhibition of fungal growth is determined photometrically after 2 to 7 days, depending on the pathosystem, and percent antifungal activity relative to the untreated check is calculated. Conidia of the fungus from cryogenic storage are directly mixed into nutrient broth (PDB potato dextrose broth). After placing a (DMSO) solution of test compound into a microtiter plate (96-well format), the nutrient broth containing the fungal spores is added. The test plates are incubated at 24° C. and the inhibition of growth is measured photometrically 3-4 days after application.

Phakopsora pachyrhizi = test: Fungicidal activity against Phakopsora pachyrhizi, soybean, leaf disc preventative (Asian soybean rust); format: in vivo; conditions: foliar, 288 h, 12-14 days after application, compared to untreated control
Experimental: Leaf disks or leaf segments of various plant species are cut from plants grown in a greenhouse. The cut leaf disks or segments are placed in multiwell plates (24-well format) onto water agar. The leaf disks are sprayed with a test solution before (preventative) or after (curative) inoculation. Compounds to be tested are prepared as DMSO solutions (max. 10 mg/ml) which are diluted to the appropriate concentration with 0.025% Tween20 just before spraying. The inoculated leaf disks or segments are incubated under defined conditions (temperature, relative humidity, light, etc.) according to the respective test system. A single evaluation of disease level is carried out 3 to 14 days after inoculation, depending on the pathosystem. Percent disease control relative to the untreated check leaf disks or segments is then calculated. Soybean leaf disks are placed on water agar in multiwell plates (24-well format) and sprayed with the formulated test compound diluted in water. One day after application leaf discs are inoculated by spraying a spore suspension on the lower leaf surface. After an incubation period in a climate cabinet of 24-36 hours in darkness at 20° C. and 75% rh leaf disc are kept at 20° C. with 12 h light/day and 75% rh. The activity of a compound is assessed as percent disease control compared to untreated when an appropriate level of disease damage appears in untreated check leaf disks (12-14 days after application).

[2] = test system: Puccinia recondita f. sp. tritici; test: Fungicidal activity against Puccinia recondita f. sp. tritici, wheat, leaf disc curative (brown rust); format: in vivo; conditions: foliar, 144 h, wheat leaf segments, curative (applied 1 day after inoculation), 6-8 days after application, compared to untreated control
Experimental: (§1) Leaf disks or leaf segments of various plant species are cut from plants grown in a greenhouse. The cut leaf disks or segments are placed in multiwell plates (24-well format) onto water agar. The leaf disks are sprayed with a test solution before (preventative) or after (curative) inoculation. Compounds to be tested are prepared as DMSO solutions (max. 10 mg/ml) which are diluted to the appropriate concentration with 0.025% Tween20 just before spraying. The inoculated leaf disks or segments are incubated under defined conditions (temperature, relative humidity, light, etc.) according to the respective test system. A single evaluation of disease level is carried out 3 to 14 days after inoculation, depending on the pathosystem. Percent disease control relative to the untreated check leaf disks or segments is then calculated. Wheat leaf segments cv. Kanzler are placed on agar in multiwell plates (24-well format). The leaf segments are inoculated with a spore suspension of the fungus. Plates are stored in darkness at 19° C. and 75% rh. The formulated test compound diluted in water is applied 1 day after inoculation. The leaf segments are incubated at 19° C. and 75% rh under a light regime of 12 h light/12 h darkness in a climate cabinet and the activity of a compound is assessed as percent disease control compared to untreated when an appropriate level of disease damage appears in untreated check leaf segments (6-8 days after application).

[3] = test system: Puccinia recondita f. sp. tritici; test: Fungicidal activity against Puccinia recondita f. sp. tritici, wheat, leaf disc preventative (brown rust); format: in vivo; conditions: foliar, wheat leaf segments, preventative (inoculated 1 day after application), 7-9 days after application, compared to untreated control
Experimental: as §1, with “plates (24-well format) and sprayed with the formulated test compound diluted in water. The leaf” for “plates (24-well format). The leaf”, “of the fungus 1 day” for “of the fungus. Plates are stored in darkness at 19° C. and 75% rh. The formulated test compound diluted in water is applied 1 day”, “day after application. The inoculated” for “day after inoculation. The leaf”, “application. The inoculated leaf segments” for “inoculation. The leaf segments”, “leaf segments (7-9 days after” for “leaf segments (6-8 days after”

O=C1C2CCC(C2)N1Cc1ccc(-c2noc(C(F)(F)F)n2)cc1 (stereo not drawn) [Compound A-24, 3-[[4-[5-(trifluoromethyl)-1,2,4-oxadiazol-3-yl]phenyl]methyl]-3-azabicyclo[2.2.1]heptan-2-one]
≥ 80%: inhibition of growth at 20 ppm [1] | pest or weed control at 200 ppm (Phakopsora pachyrhizi) | pest or weed control at 200 ppm [2] | pest or weed control at 200 ppm [3]

O=C1CCCC2(CC2)N1Cc1ccc(-c2noc(C(F)(F)F)n2)cc1 [Compound A-25, 4-[[4-[5-(trifluoromethyl)-1,2,4-oxadiazol-3-yl]phenyl]methyl]-4-azaspiro[2.5]octan-5-one]
≥ 80%: inhibition of growth at 20 ppm [1] | pest or weed control at 200 ppm (Phakopsora pachyrhizi) | pest or weed control at 200 ppm [2] | pest or weed control at 200 ppm [3]

O=C1CCC2(CC2)N1Cc1ccc(-c2noc(C(F)(F)F)n2)cc1 [Compound A-27, 4-[[4-[5-(trifluoromethyl)-1,2,4-oxadiazol-3-yl]phenyl]methyl]-4-aza-spiro[2.4]heptan-5-one]
≥ 80%: inhibition of growth at 20 ppm [1] | pest or weed control at 200 ppm (Phakopsora pachyrhizi) | pest or weed control at 200 ppm [2] | pest or weed control at 200 ppm [3]

O=C1CCCCN1Cc1ccc(-c2noc(C(F)(F)F)n2)cc1F [Compound A-29, 1-[[2-fluoro-4-[5-(trifluoromethyl)-1,2,4-oxadiazol-3-yl]phenyl]methyl]piperidin-2-one]
≥ 80%: inhibition of growth at 20 ppm [1] | pest or weed control at 200 ppm (Phakopsora pachyrhizi) | pest or weed control at 200 ppm [2] | pest or weed control at 200 ppm [3]

CCOC(=O)N1CCN(Cc2ccc(-c3noc(C(F)(F)F)n3)cc2)C(=O)C1 [Compound A-32, ethyl 3-oxo-4-[[4-[5-(trifluoromethyl)-1,2,4-oxadiazol-3-yl]phenyl]methyl]piperazine-1-carboxylate]
≥ 80%: inhibition of growth at 20 ppm [1] | pest or weed control at 200 ppm (Phakopsora pachyrhizi) | pest or weed control at 200 ppm [2] | pest or weed control at 200 ppm [3]

CC(=O)N1CCN(Cc2ccc(-c3noc(C(F)(F)F)n3)cc2)C(=O)C1 [Compound A-35, 4-acetyl-1-[[4-[5-(trifluoromethyl)-1,2,4-oxadiazol-3-yl]phenyl]methyl]piperazin-2-one]
≥ 80%: inhibition of growth at 20 ppm [1] | pest or weed control at 200 ppm (Phakopsora pachyrhizi) | pest or weed control at 200 ppm [2] | pest or weed control at 200 ppm [3]

O=C1CCCON1Cc1ccc(-c2noc(C(F)(F)F)n2)cc1 [Compound A-37, 2-[[4-[5-(trifluoromethyl)-1,2,4-oxadiazol-3-yl]phenyl]methyl]oxazinan-3-one]
≥ 80%: inhibition of growth at 20 ppm [1] | pest or weed control at 200 ppm (Phakopsora pachyrhizi) | pest or weed control at 200 ppm [2] | pest or weed control at 200 ppm [3]

CON(C)C(=O)N1CCN(Cc2ccc(-c3noc(C(F)(F)F)n3)cc2)C(=O)C1 [Compound A-39, N-methoxy-N-methyl-3-oxo-4-[[4-[5-(trifluoromethyl)-1,2,4-oxadiazol-3-yl]phenyl]methyl]piperazine-1-carboxamide]
≥ 80%: inhibition of growth at 20 ppm [1] | pest or weed control at 200 ppm (Phakopsora pachyrhizi) | pest or weed control at 200 ppm [2] | pest or weed control at 200 ppm [3]

O=C1CN(C(=O)C2CC2)CCN1Cc1ccc(-c2noc(C(F)(F)F)n2)cc1 [Compound A-40, 4-(cyclopropane-carbonyl)-1-[[4-[5-(trifluoromethyl)-1,2,4-oxadiazol-3-yl]phenyl]methyl]piperazin-2-one]
≥ 80%: inhibition of growth at 20 ppm [1] | pest or weed control at 200 ppm (Phakopsora pachyrhizi) | pest or weed control at 200 ppm [2] | pest or weed control at 200 ppm [3]

CN(C)S(=O)(=O)N1CCN(Cc2ccc(-c3noc(C(F)(F)F)n3)cc2)C(=O)C1 [Compound A-42, N,N-dimethyl-3-oxo-4-[[4-[5-(trifluoromethyl)-1,2,4-oxadiazol-3-yl]phenyl]methyl]piperazine-1-sulfonamide]
≥ 80%: inhibition of growth at 20 ppm [1] | pest or weed control at 200 ppm (Phakopsora pachyrhizi) | pest or weed control at 200 ppm [2] | pest or weed control at 200 ppm [3]

CNS(=O)(=O)N1CCN(Cc2ccc(-c3noc(C(F)(F)F)n3)cc2)C(=O)C1 [Compound A-43, N-methyl-3-oxo-4-[[4-[5-(trifluoromethyl)-1,2,4-oxadiazol-3-yl]phenyl]methyl]piperazine-1-sulfonamide]
≥ 80%: inhibition of growth at 20 ppm [1] | pest or weed control at 200 ppm (Phakopsora pachyrhizi) | pest or weed control at 200 ppm [2] | pest or weed control at 200 ppm [3]

CN1CCN(Cc2ccc(-c3noc(C(F)(F)F)n3)cc2)C1=O [Compound A-46, 1-methyl-3-[[4-[5-(trifluoromethyl)-1,2,4-oxadiazol-3-yl]phenyl]methyl]imidazolidin-2-one]
≥ 80%: inhibition of growth at 20 ppm [1] | pest or weed control at 200 ppm (Phakopsora pachyrhizi) | pest or weed control at 200 ppm [2] | pest or weed control at 200 ppm [3]

CN1C(=O)CN(Cc2ccc(-c3noc(C(F)(F)F)n3)cc2)C1=O [Compound A-47, 3-methyl-1-[[4-[5-(trifluoromethyl)-1,2,4-oxadiazol-3-yl]phenyl]methyl]imidazolidine-2,4-dione]
≥ 80%: inhibition of growth at 20 ppm [1] | pest or weed control at 200 ppm (Phakopsora pachyrhizi) | pest or weed control at 200 ppm [2] | pest or weed control at 200 ppm [3]

CN1CCCN(Cc2ccc(-c3noc(C(F)(F)F)n3)cc2)C1=O [Compound A-48, 1-methyl-3-[[4-[5-(trifluoromethyl)-1,2,4-oxadiazol-3-yl]phenyl]methyl]hexahydro-pyrimidin-2-one]
≥ 80%: inhibition of growth at 20 ppm [1] | pest or weed control at 200 ppm (Phakopsora pachyrhizi) | pest or weed control at 200 ppm [2] | pest or weed control at 200 ppm [3]

CN1CC(=O)N(Cc2ccc(-c3noc(C(F)(F)F)n3)cc2)C1=O [Compound A-50, 1-methyl-3-[[4-[5-(trifluoromethyl)-1,2,4-oxadiazol-3-yl]phenyl]methyl]imidazolidine-2,4-dione]
≥ 80%: inhibition of growth at 20 ppm [1] | pest or weed control at 200 ppm (Phakopsora pachyrhizi) | pest or weed control at 200 ppm [2] | pest or weed control at 200 ppm [3]
